{
  "source": "patent US20040024055A1",
  "about": "“Pharmaceutical composition containing the exract of saururus chinensis baill useful as an anticancer agent and a process for the preparation thereof” (priority 2000, published 2004)",
  "key": {"[1]": {"system": "SK-Hep-1 liver cancer cell line", "test": "MTT analysis, anticancer activity", "format": "cell-based, human", "details": "48 hr"}, "[2]": {"system": "PC-3 prostate cancer cell line", "test": "MTT analysis, anticancer activity", "format": "cell-based, human", "details": "48 hr", "method": "To be specific, SK-Hep-1 cell, which is liver cancer cell line, was added to 96-well microplate (Falcon, USA) with the concentration of 3×10^5 cells/ml by 100 μl per well. Each extracted and separated substance dissolved in DMSO was added to the well by 100 μl for the final concentration to be from 50 μg/ml to 0.0244 μg/ml, with 200 μl of final volume. Each cell was cultured for 48 hr in a culture medium of 37° C. and 5% CO2. After cultivation, 20 μl of phosphate buffer solution containing 5 mg/ml of MTT (3-[4,5-dimethylthiazol-2-yl]-2,5-diphenyltetrazoliumbromide, Sigma Co.) reagent was added to each well, and then cultured for 4 hr. After taking 100 μl of supernant from each culture medium, 100 μl of 0.04N hydrochloric acid-isopropanol was added. After letting alone overnight, absorbance was measured at 560 nm using automatic Eliza detector (Molecular Divices Corp., USA). Anticancer activity of each extracted and separated substance was calculated from the absorbance value by Equation 1 and was expressed in terms of cell.\nAverage Existence Rate(%)=(Absorbance of Treated Group)/(Absorbance of Control Group)×100"}, "[3]": {"system": "DU-145 prostate cancer cell line", "test": "MTT analysis, anticancer activity", "format": "cell-based, human", "details": "48 hr"}, "BT-20": {"system": "BT-20", "test": "MTT analysis, anticancer activity", "format": "cell-based, human", "details": "48 hr"}, "BT-549": {"system": "BT-549", "test": "MTT analysis, anticancer activity", "format": "cell-based, human", "details": "10 μg/ml sample"}, "HS-578T": {"system": "HS-578T", "test": "MTT analysis, anticancer activity", "format": "cell-based, human", "details": "10 μg/ml sample"}, "MCF-7": {"system": "MCF-7", "test": "MTT analysis, anticancer activity", "format": "cell-based, human", "details": "MTT, 48 hr"}, "SK-BR-3": {"system": "SK-BR-3", "test": "MTT analysis, anticancer activity", "format": "cell-based, human", "details": "48 hr"}, "T-47D": {"system": "T-47D", "test": "MTT analysis, anticancer activity", "format": "cell-based, human", "details": "48 hr"}, "HeLa": {"system": "HeLa", "test": "MTT analysis, anticancer activity", "format": "cell-based, human", "details": "48 hr"}, "ME-180": {"system": "ME-180", "test": "MTT analysis, anticancer activity", "format": "cell-based, human", "details": "10 μg/ml sample"}, "HT-29": {"system": "HT-29", "test": "MTT analysis, anticancer activity", "format": "cell-based, human", "details": "10 μg/ml sample"}, "LoVo": {"system": "LoVo", "test": "MTT analysis, anticancer activity", "format": "cell-based, human", "details": "10 μg/ml sample"}, "SK-N-SH": {"system": "SK-N-SH", "test": "MTT analysis, anticancer activity", "format": "cell-based, human", "details": "48 hr"}, "T98G": {"system": "T98G", "test": "MTT analysis, anticancer activity", "format": "cell-based, human", "details": "48 hr"}, "HS-746T": {"system": "HS-746T", "test": "MTT analysis, anticancer activity", "format": "cell-based, human", "details": "10 μg/ml sample"}, "KATO-III": {"system": "KATO-III", "test": "MTT analysis, anticancer activity", "format": "cell-based, human", "details": "MTT, 48 hr"}, "A431": {"system": "A431", "test": "MTT analysis, anticancer activity", "format": "cell-based, human", "details": "48 hr"}, "Hep-2": {"system": "Hep-2", "test": "MTT analysis, anticancer activity", "format": "cell-based, human", "details": "MTT, 48 hr"}, "HT1080": {"system": "HT1080", "test": "MTT analysis, anticancer activity", "format": "cell-based, human", "details": "48 hr"}, "NCI-H69": {"system": "NCI-H69", "test": "MTT analysis, anticancer activity", "format": "cell-based, human", "details": "10 μg/ml sample"}, "SK-MEL-28": {"system": "SK-MEL-28", "test": "MTT analysis, anticancer activity", "format": "cell-based, human", "details": "48 hr"}, "SK-OV-3": {"system": "SK-OV-3", "test": "MTT analysis, anticancer activity", "format": "cell-based, human", "details": "10 μg/ml sample"}, "HS683": {"system": "HS683", "test": "MTT analysis, anticancer activity", "format": "cell-based, human", "details": "48 hr"}, "293": {"system": "293", "test": "MTT analysis, cytotoxicity against normal cell line", "format": "cell-based, human", "details": "10 μg/ml sample"}, "3T3-L1": {"system": "3T3-L1", "test": "MTT analysis, cytotoxicity against normal cell line", "format": "cell-based, mouse", "details": "10 μg/ml sample"}, "CHO": {"system": "CHO", "test": "MTT analysis, cytotoxicity against normal cell line", "format": "cell-based, Chinese hamster", "details": "10 μg/ml sample"}, "CPAE": {"system": "CPAE", "test": "MTT analysis, cytotoxicity against normal cell line", "format": "cell-based, bovine", "details": "10 μg/ml sample"}, "HS27": {"system": "HS27", "test": "MTT analysis, cytotoxicity against normal cell line", "format": "cell-based, human", "details": "10 μg/ml sample"}, "NIH-3T3": {"system": "NIH-3T3", "test": "MTT analysis, cytotoxicity against normal cell line", "format": "cell-based, mouse", "details": "10 μg/ml sample"}, "Solubility": {"test": "Solubility", "format": "physicochemical"}, "mouse [4]": {"system": "mouse", "details": "intraperitoneal, Rao et al.; cited from earlier work"}, "mouse [5]": {"system": "mouse", "details": "reported by Rao et al.; cited from earlier work"}},
  "data": [
    {"smiles": "COc1ccc(C(O)C(C)Oc2ccc(C3OC(c4ccc(OC(C)[C@@H](O)c5ccc(OC)c(OC)c5)c(OC)c4)C(C)C3C)cc2OC)cc1OC", "note": "(single isomer, unassigned) [HNP-98701C, manassantin A]", "values": [
      {"measurement": "IC50 SK-Hep-1", "setting": "[1]", "value": 0.0560, "unit": "µg/mL"},
      {"measurement": "IC50 PC-3", "setting": "[2]", "value": 0.0446, "unit": "µg/mL"},
      {"measurement": "IC50 DU-145", "setting": "[3]", "value": 0.0263, "unit": "µg/mL"},
      {"measurement": "IC50 BT-20", "setting": "BT-20", "value": 0.0629, "unit": "µg/mL"},
      {"measurement": "Existence rate class, BT-549 (in IC50 table)", "setting": "BT-549", "value": "* (Existence rate larger than 60% for 10 μg/ml sample)"},
      {"measurement": "Existence rate class, HS-578T (in IC50 table)", "setting": "HS-578T", "value": "N.E. (Not effective; existence rate larger than 90% for 10 μg/ml sample)"},
      {"measurement": "IC50 MCF-7", "setting": "MCF-7", "value": ">10", "unit": "µg/mL"},
      {"measurement": "IC50 SK-BR-3", "setting": "SK-BR-3", "value": 0.0632, "unit": "µg/mL"},
      {"measurement": "IC50 T-47D", "setting": "T-47D", "value": 0.1249, "unit": "µg/mL"},
      {"measurement": "IC50 HeLa", "setting": "HeLa", "value": 0.1838, "unit": "µg/mL"},
      {"measurement": "Existence rate class, ME-180 (in IC50 table)", "setting": "ME-180", "value": "* (Existence rate larger than 60% for 10 μg/ml sample)"},
      {"measurement": "Existence rate class, HT-29 (in IC50 table)", "setting": "HT-29", "value": "* (Existence rate larger than 60% for 10 μg/ml sample)"},
      {"measurement": "Existence rate class, LoVo (in IC50 table)", "setting": "LoVo", "value": "* (Existence rate larger than 60% for 10 μg/ml sample)"},
      {"measurement": "IC50 SK-N-SH", "setting": "SK-N-SH", "value": 0.5392, "unit": "µg/mL"},
      {"measurement": "IC50 T98G", "setting": "T98G", "value": 0.1014, "unit": "µg/mL"},
      {"measurement": "Existence rate class, HS-746T (in IC50 table)", "setting": "HS-746T", "value": "* (Existence rate larger than 60% for 10 μg/ml sample)"},
      {"measurement": "IC50 KATO-III", "setting": "KATO-III", "value": 0.7005, "unit": "µg/mL"},
      {"measurement": "IC50 A431", "setting": "A431", "value": 0.3860, "unit": "µg/mL"},
      {"measurement": "IC50 Hep-2", "setting": "Hep-2", "value": 0.0367, "unit": "µg/mL"},
      {"measurement": "IC50 HT1080", "setting": "HT1080", "value": 0.1753, "unit": "µg/mL"},
      {"measurement": "Existence rate class, NCI-H69 (in IC50 table)", "setting": "NCI-H69", "value": "* (Existence rate larger than 60% for 10 μg/ml sample)"},
      {"measurement": "IC50 SK-MEL-28", "setting": "SK-MEL-28", "value": 0.0725, "unit": "µg/mL"},
      {"measurement": "Existence rate class, SK-OV-3 (in IC50 table)", "setting": "SK-OV-3", "value": "N.E. (Not effective; existence rate larger than 90% for 10 μg/ml sample)"},
      {"measurement": "IC50 HS683", "setting": "HS683", "value": 0.2170, "unit": "µg/mL"},
      {"measurement": "Existence rate class, 293 (in IC50 table)", "setting": "293", "value": "* (Existence rate larger than 60% for 10 μg/ml sample)"},
      {"measurement": "Existence rate class, 3T3-L1 (in IC50 table)", "setting": "3T3-L1", "value": "N.E. (Not effective; existence rate larger than 90% for 10 μg/ml sample)"},
      {"measurement": "Existence rate class, CHO (in IC50 table)", "setting": "CHO", "value": "* (Existence rate larger than 60% for 10 μg/ml sample)"},
      {"measurement": "Existence rate class, CPAE (in IC50 table)", "setting": "CPAE", "value": "* (Existence rate larger than 60% for 10 μg/ml sample)"},
      {"measurement": "Existence rate class, HS27 (in IC50 table)", "setting": "HS27", "value": "N.E. (Not effective; existence rate larger than 90% for 10 μg/ml sample)"},
      {"measurement": "Existence rate class, NIH-3T3 (in IC50 table)", "setting": "NIH-3T3", "value": "N.E. (Not effective; existence rate larger than 90% for 10 μg/ml sample)"},
      {"measurement": "Solubility in methanol, ethanol, ethyl acetate, chloroform and dimethylsulfoxide (DMSO)", "setting": "Solubility", "value": "highly soluble"},
      {"measurement": "Solubility in water, acetone, ether and hexane", "setting": "Solubility", "value": "insoluble"},
      {"measurement": "spontaneous movement 50% reduction concentration (IC50)", "setting": "mouse [4]", "value": "0.21 ± 0.02", "unit": "mg/kg"},
      {"measurement": "50% lethal dose (LD50)", "setting": "mouse [5]", "value": 5.2, "unit": "mg/kg"}
    ]}
  ]
}
